Test results: PubChem BioAssay (NCI)
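Tested at 5 concentrations; 48 h exposure; 96-well plates; endpoints linearly interpolated, else capped at highest concentration. TGI: total growth inhibition.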

System: 786-0 renal
Test: NCI tumour cell line growth inhibition, 48 h

Row | SMILES | TGI
1 | NC1=NCN(C2OC(CO)C(O)C2O)C(=O)N1 (configuration not stated) | 2050 µM
2 | CCCNCCCCC(NC(C)=O)C(=O)NCc1ccccc1 (configuration not stated) | > 100 µM
3 | CNC(=O)OCc1nc(SC)n(C)c1COC(=O)NC | 413 µM
4 | O=C(O)CSc1n[nH]c(-c2ccco2)n1 | > 100 µM

System: A498 renal
Test: NCI tumour cell line growth inhibition, 48 h

Row | SMILES | TGI
5 | NC1=NCN(C2OC(CO)C(O)C2O)C(=O)N1 (configuration not stated) | 804 µM
6 | CCCNCCCCC(NC(C)=O)C(=O)NCc1ccccc1 (configuration not stated) | > 100 µM
7 | CNC(=O)OCc1nc(SC)n(C)c1COC(=O)NC | 386 µM
8 | O=C(O)CSc1n[nH]c(-c2ccco2)n1 | > 100 µM

System: A549 NSCLC
Test: NCI tumour cell line growth inhibition, 48 h

Row | SMILES | TGI
9 | NC1=NCN(C2OC(CO)C(O)C2O)C(=O)N1 (configuration not stated) | 1080 µM
10 | CCCNCCCCC(NC(C)=O)C(=O)NCc1ccccc1 (configuration not stated) | > 100 µM
11 | CNC(=O)OCc1nc(SC)n(C)c1COC(=O)NC | 836 µM
12 | O=C(O)CSc1n[nH]c(-c2ccco2)n1 | > 100 µM

System: ACHN renal
Test: NCI tumour cell line growth inhibition, 48 h

Row | SMILES | TGI
13 | NC1=NCN(C2OC(CO)C(O)C2O)C(=O)N1 (configuration not stated) | 106 µM
14 | CCCNCCCCC(NC(C)=O)C(=O)NCc1ccccc1 (configuration not stated) | > 100 µM
15 | CNC(=O)OCc1nc(SC)n(C)c1COC(=O)NC | 361 µM
16 | O=C(O)CSc1n[nH]c(-c2ccco2)n1 | > 100 µM

System: BT-549 breast
Test: NCI tumour cell line growth inhibition, 48 h

Row | SMILES | TGI
17 | NC1=NCN(C2OC(CO)C(O)C2O)C(=O)N1 (configuration not stated) | 765 µM
18 | CNC(=O)OCc1nc(SC)n(C)c1COC(=O)NC | 300 µM

System: CAKI-1 renal
Test: NCI tumour cell line growth inhibition, 48 h

Row | SMILES | TGI
19 | NC1=NCN(C2OC(CO)C(O)C2O)C(=O)N1 (configuration not stated) | 339 µM
20 | CCCNCCCCC(NC(C)=O)C(=O)NCc1ccccc1 (configuration not stated) | > 100 µM
21 | CNC(=O)OCc1nc(SC)n(C)c1COC(=O)NC | 497 µM
22 | O=C(O)CSc1n[nH]c(-c2ccco2)n1 | > 100 µM

System: CCRF-CEM leukemia
Test: NCI tumour cell line growth inhibition, 48 h

Row | SMILES | TGI
23 | NC1=NCN(C2OC(CO)C(O)C2O)C(=O)N1 (configuration not stated) | 541 µM
24 | CCCNCCCCC(NC(C)=O)C(=O)NCc1ccccc1 (configuration not stated) | > 100 µM
25 | CNC(=O)OCc1nc(SC)n(C)c1COC(=O)NC | 494 µM
26 | O=C(O)CSc1n[nH]c(-c2ccco2)n1 | > 100 µM

System: COLO 205 colon
Test: NCI tumour cell line growth inhibition, 48 h

Row | SMILES | TGI
27 | NC1=NCN(C2OC(CO)C(O)C2O)C(=O)N1 (configuration not stated) | 584 µM
28 | CCCNCCCCC(NC(C)=O)C(=O)NCc1ccccc1 (configuration not stated) | > 100 µM
29 | CNC(=O)OCc1nc(SC)n(C)c1COC(=O)NC | 295 µM
30 | O=C(O)CSc1n[nH]c(-c2ccco2)n1 | > 100 µM

System: DLD-1 colon
Test: NCI tumour cell line growth inhibition, 48 h

Row | SMILES | TGI
31 | NC1=NCN(C2OC(CO)C(O)C2O)C(=O)N1 (configuration not stated) | 1560 µM
32 | CCCNCCCCC(NC(C)=O)C(=O)NCc1ccccc1 (configuration not stated) | > 100 µM
33 | CNC(=O)OCc1nc(SC)n(C)c1COC(=O)NC | 494 µM
34 | O=C(O)CSc1n[nH]c(-c2ccco2)n1 | > 100 µM

System: DMS 114 small cell lung
Test: NCI tumour cell line growth inhibition, 48 h

Row | SMILES | TGI
35 | NC1=NCN(C2OC(CO)C(O)C2O)C(=O)N1 (configuration not stated) | 437 µM
36 | CCCNCCCCC(NC(C)=O)C(=O)NCc1ccccc1 (configuration not stated) | > 100 µM
37 | CNC(=O)OCc1nc(SC)n(C)c1COC(=O)NC | 199 µM

System: DMS 273 small cell lung
Test: NCI tumour cell line growth inhibition, 48 h

Row | SMILES | TGI
38 | NC1=NCN(C2OC(CO)C(O)C2O)C(=O)N1 (configuration not stated) | 620 µM
39 | CCCNCCCCC(NC(C)=O)C(=O)NCc1ccccc1 (configuration not stated) | > 100 µM
40 | CNC(=O)OCc1nc(SC)n(C)c1COC(=O)NC | 251 µM
41 | O=C(O)CSc1n[nH]c(-c2ccco2)n1 | > 100 µM

System: DU-145 prostate
Test: NCI tumour cell line growth inhibition, 48 h

Row | SMILES | TGI
42 | NC1=NCN(C2OC(CO)C(O)C2O)C(=O)N1 (configuration not stated) | 1330 µM
43 | CNC(=O)OCc1nc(SC)n(C)c1COC(=O)NC | 379 µM

System: EKVX NSCLC
Test: NCI tumour cell line growth inhibition, 48 h

Row | SMILES | TGI
44 | NC1=NCN(C2OC(CO)C(O)C2O)C(=O)N1 (configuration not stated) | 1870 µM
45 | CCCNCCCCC(NC(C)=O)C(=O)NCc1ccccc1 (configuration not stated) | > 100 µM
46 | CNC(=O)OCc1nc(SC)n(C)c1COC(=O)NC | 492 µM
47 | O=C(O)CSc1n[nH]c(-c2ccco2)n1 | > 100 µM

System: HCC-2998 colon
Test: NCI tumour cell line growth inhibition, 48 h

Row | SMILES | TGI
48 | NC1=NCN(C2OC(CO)C(O)C2O)C(=O)N1 (configuration not stated) | 1190 µM
49 | CCCNCCCCC(NC(C)=O)C(=O)NCc1ccccc1 (configuration not stated) | > 100 µM
50 | CNC(=O)OCc1nc(SC)n(C)c1COC(=O)NC | 307 µM
51 | O=C(O)CSc1n[nH]c(-c2ccco2)n1 | > 100 µM

System: HCT-116 colon
Test: NCI tumour cell line growth inhibition, 48 h

Row | SMILES | TGI
52 | NC1=NCN(C2OC(CO)C(O)C2O)C(=O)N1 (configuration not stated) | 143 µM
53 | CCCNCCCCC(NC(C)=O)C(=O)NCc1ccccc1 (configuration not stated) | > 100 µM
54 | CNC(=O)OCc1nc(SC)n(C)c1COC(=O)NC | 372 µM
55 | O=C(O)CSc1n[nH]c(-c2ccco2)n1 | > 100 µM

System: HCT-15 colon
Test: NCI tumour cell line growth inhibition, 48 h

Row | SMILES | TGI
56 | NC1=NCN(C2OC(CO)C(O)C2O)C(=O)N1 (configuration not stated) | 530 µM
57 | CCCNCCCCC(NC(C)=O)C(=O)NCc1ccccc1 (configuration not stated) | > 100 µM
58 | CNC(=O)OCc1nc(SC)n(C)c1COC(=O)NC | 410 µM

System: HL-60(TB) leukemia
Test: NCI tumour cell line growth inhibition, 48 h

Row | SMILES | TGI
59 | NC1=NCN(C2OC(CO)C(O)C2O)C(=O)N1 (configuration not stated) | 18.4 µM
60 | CNC(=O)OCc1nc(SC)n(C)c1COC(=O)NC | 262 µM
61 | O=C(O)CSc1n[nH]c(-c2ccco2)n1 | > 100 µM

System: HOP-18 NSCLC
Test: NCI tumour cell line growth inhibition, 48 h

Row | SMILES | TGI
62 | NC1=NCN(C2OC(CO)C(O)C2O)C(=O)N1 (configuration not stated) | 1060 µM
